Literature values as cited in patent US20060211766A1, “Gelled immunomodulating topical compositions and a method of treating warts and other human papilloma virus skin infections” (priority 2004, published 2006).

Test system: rodents
Conditions: in rodents

CC(C)=O [Acetone]
LD/50: 10.7 mg per kilogram
